Results taken from article PMC3390202 (Biochemistry, 2011).

Target: rhodopsin (N2C,D282C and N2C,E113Q,D282C mutants) (Bos taurus, UniProt P02699, N2C/E113Q/D282C)
Experiment: UV-visible absorption
Type: binding
Conditions: covalent; in the dark; inverse agonist chromophore; DDM, Hepes pH 7.5

CC1=C(/C=C/C(C)=C/C=C\C(C)=C\C=O)C(C)(C)CCC1 [11-cis-retinal]
UV-visible absorption; 1D4-Sepharose copurification with transducin: Binding of 11-cis-retinal forces the protein into the inactive state
